From patent US7803815B2, “Indol-3-yl-corbonyl-piperidin-benzoimidazol derivatives” (Hoffmann-La Roche Inc., priority 2005, dated 2010) come the findings set out here.

T1 sequence (P37288 whole entry): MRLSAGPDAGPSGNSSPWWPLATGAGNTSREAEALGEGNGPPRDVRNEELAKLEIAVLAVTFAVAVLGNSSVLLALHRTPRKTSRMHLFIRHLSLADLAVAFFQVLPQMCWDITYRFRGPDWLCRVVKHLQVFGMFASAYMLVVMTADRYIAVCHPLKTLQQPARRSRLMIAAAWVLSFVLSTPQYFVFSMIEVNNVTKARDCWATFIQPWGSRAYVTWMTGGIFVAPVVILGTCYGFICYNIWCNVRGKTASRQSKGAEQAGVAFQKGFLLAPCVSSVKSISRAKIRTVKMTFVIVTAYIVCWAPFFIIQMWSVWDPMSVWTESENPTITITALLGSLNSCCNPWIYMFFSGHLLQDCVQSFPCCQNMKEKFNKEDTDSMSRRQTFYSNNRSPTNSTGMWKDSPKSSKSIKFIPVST

This assay concerns the target T1, human V1a receptor (Homo sapiens, UniProt P37288).
T1 construct: expressed in transfected cells; host or cells: HEK293 cells, transiently transfected; membrane preparation
Briefly: human V1a receptor binding, 3H-Vasopressin SPA on membranes of transfected HEK293 cells. As to conditions: displacement of 4 nM 3H-Vasopressin; HEK293 cell membranes; 1 h at room temperature; Ki from IC50 by the Cheng-Prussoff equation. The procedure:
The human V1a receptor was cloned by RT-PCR from total human liver RNA. The coding sequence was subcloned in an expression vector after sequencing to confirm the identity of the amplified sequence. […] Cell membranes were prepared from HEK293 cells transiently transfected with the expression vector and grown in 20 liter fermenters with the following protocol.
50 g of cells are resuspended in 30 ml freshly prepared ice cold Lysis buffer (50 mM HEPES, 1 mM EDTA, 10 mM MgCl2 adjusted to pH=7.4+ complete cocktail of protease inhibitor (Roche Diagnostics)). Homogenized with Polytron for 1 min and sonicated on ice for 2×2 minutes at 80% intensity (Vibracell sonicator). The preparation is centrifuged 20 min at 500 g at 4° C., the pellet is discarded, and the supernatant centrifuged 1 hour at 43,000 g at 4° C. (19,000 rpm). The pellet is resuspended in 12.5 ml Lysis buffer+12.5 ml Sucrose 20% and homogenized using a Polytron for 1-2 min. The protein concentration is determined by the Bradford method, and aliquots are stored at −80° C. until use. For binding studies 60 mg Yttrium silicate SPA beads (Amersham) are mixed with an aliquot of membrane in binding buffer (50 mM Tris, 120 mM NaCl, 5 mM, KCl, 2 mM CaCl2, 10 mM MgCl2) for 15 minutes with mixing. 50 ul of bead/membrane mixture is then added to each well of a 96 well plate, followed by 50 ul of 4 nM 3H-Vasopressin (American Radiolabeled Chemicals). For total binding measurement, 100 ul of binding buffer are added to the respective wells, for non-specific binding 100 ul of […] cold vasopressin and for compound testing 100 ul of a serial dilution of each compound in 2% DMSO. The plate is incubated 1 h at room temperature, centrifuged 1 min at 1000 g and counted on a Packard Top-Count. Non-specific binding counts are subtracted from each well, and data is normalized to the maximum specific binding set at 100%. To calculate an IC 50, the curve is fitted using a non-linear regression model (XLfit), and the Ki is calculated using the Cheng-Prussoff equation.
The Ki is a dissociation constant, usually derived from enzyme kinetics or from competition with a known ligand. Regarding `O=C(c1cn(C(=O)c2cc(F)cc(F)c2)c2cc(Cl)ccc12)N1CCC(n2c(=O)[nH]c3ccccc32)CC1` [Example 37, 1-{1-[6-Chloro-1-(3,5-difluoro-benzoyl)-1H-indole-3-carbonyl]-piperidin-4-yl}-1,3-dihydro-benzoimidazol-2-one], the Ki amounted to 15 nM.
As for `O=C(Cn1cc(C(=O)N2CCC(n3c(=O)[nH]c4ccccc43)CC2)c2ccc(Cl)cc21)c1ccccc1F` [Example 38, 1-(1-{6-Chloro-1-[2-(2-fluoro-phenyl)-2-oxo-ethyl]-1H-indole-3-carbonyl}-piperidin-4-yl)-1,3-dihydro-benzoimidazol-2-one], the figure is 2 nM.
In the case of `O=C(Cn1cc(C(=O)N2CCC(n3c(=O)[nH]c4ccccc43)CC2)c2ccc(Cl)cc21)c1ccc(F)c(F)c1` [Example 39, 1-(1-{6-Chloro-1-[2-(3,4-difluoro-phenyl)-2-oxo-ethyl]-1H-indole-3-carbonyl}-piperidin-4-yl)-1,3-dihydro-benzoimidazol-2-one], the affinity, expressed as Ki, was 18 nM.
For the compound `O=C(c1cn(-c2cc(F)cc(F)c2)c2cc(Cl)ccc12)N1CCC(n2c(=O)[nH]c3ccccc32)CC1` [Example 40, 1-{1-[6-Chloro-1-(3,5-difluoro-phenyl)-1H-indole-3-carbonyl]-piperidin-4-yl}-1,3-dihydro-benzoimidazol-2-one], affinity was put at a Ki of 13 nM.
As to `O=C(c1cn(C(=O)N2CCCCC2)c2cc(Cl)ccc12)N1CCC(n2c(=O)[nH]c3ccccc32)CC1` [Example 41, 1-{1-[6-Chloro-1-(piperidine-1-carbonyl)-1H-indole-3-carbonyl]-piperidin-4-yl}-1,3-dihydro-benzoimidazol-2-one], the inhibitory constant (Ki) amounted to 14 nM.
As for `O=C(Cn1cc(C(=O)N2CCC(n3c(=O)n(CC(=O)N4CCCCC4)c4ccccc43)CC2)c2ccc(Cl)cc21)N1CCCCC1` [Example 42, 1-{1-[6-Chloro-1-(2-oxo-2-piperidin-1-yl-ethyl)-1H-indole-3-carbonyl]-piperidin-4-yl}-3-(2-oxo-2-piperidin-1-yl-ethyl)-1,3-dihydro-benzoimidazol-2-one], the figure is 18 nM; as for `CCN(CC)C(=O)Cn1cc(C(=O)N2CCC(n3c(=O)n(CC(=O)N(CC)CC)c4ccccc43)CC2)c2ccc(Cl)cc21` [Example 43, 2-{6-Chloro-3-[4-(3-diethylcarbamoylmethyl-2-oxo-2,3-dihydro-benzoimidazol-1-yl)-piperidine-1-carbonyl]-indol-1-yl}-N,N-diethyl-acetamide], 62 nM.
As for `O=C(Cn1cc(C(=O)N2CCC(n3c(=O)[nH]c4ccccc43)CC2)c2ccc(Cl)cc21)c1cc(F)cc(F)c1` [Example 44, 1-(1-{6-Chloro-1-[2-(3,5-difluoro-phenyl)-2-oxo-ethyl]-1H-indole-3-carbonyl}-piperidin-4-yl)-1,3-dihydro-benzoimidazol-2-one], the figure is 17 nM.
As for `Cc1oc(-c2ccccc2)nc1C(=O)Cn1cc(C(=O)N2CCC(n3c(=O)[nH]c4ccccc43)CC2)c2ccc(Cl)cc21` [Example 45, 1-(1-{6-Chloro-1-[2-(5-methyl-2-phenyl-oxazol-4-yl)-2-oxo-ethyl]-1H-indole-3-carbonyl}-piperidin-4-yl)-1,3-dihydro-benzoimidazol-2-one], the figure is 43 nM; as for `CN(C)C(=O)Cn1cc(C(=O)N2CCC(n3c(=O)[nH]c4ccccc43)CC2)c2ccc(Cl)cc21` [Example 46, 2-{6-Chloro-3-[4-(2-oxo-2,3-dihydro-benzoimidazol-1-yl)-piperidine-1-carbonyl]-indol-1-yl}-N,N-dimethyl-acetamide], 2 nM.
In the case of `Cc1cc2c(C(=O)N3CCC(n4c(=O)[nH]c5ccccc54)CC3)cn(CC(=O)N(C)C)c2cc1Cl` [Example 47, 2-{6-Chloro-5-methyl-3-[4-(2-oxo-2,3-dihydro-benzoimidazol-1-yl)-piperidine-1-carbonyl]-indol-1-yl}-N,N-dimethyl-acetamide], the Ki amounted to 5 nM.
As for `CN(C)C(=O)Cn1cc(C(=O)N2CCC(n3c(=O)[nH]c4ccccc43)CC2)c2cc(Cl)c(Cl)cc21` [Example 48, 2-{5,6-Dichloro-3-[4-(2-oxo-2,3-dihydro-benzoimidazol-1-yl)-piperidine-1-carbonyl]-indol-1-yl}-N,N-dimethyl-acetamide], the figure is 3 nM.
